Values after ≈ are worked out from the molar mass of the structure shown.
Legend:
[1] = test system: A. fumigatus systemic infection; assay: Systemic aspergillosis mouse model; format: in vivo, mice; conditions: for liver histopathology (H&E): vs infected animals; for heart histopathology (H&E): vs infected group; for serum levels of ALT, AST, uric acid, and creatinine: systemic A. fumigatus infection, day 7, compared with infected nontreated group (combination: also vs noninfected control)
Protocol: (§1) Four-week-old mice were obtained from Kafrelshikh university animal sourcing. Food and water were given ad libitum. The mice were handled according to the instructions and regulations of the ethics committee.
(§2) To help in the induction of fungal infection, mice were immunocompromised by Endoxan® (cyclophosphamide), injected i.v. at a dose rate of 100 mg/kg. The injection of cyclophosphamide was at three and one days before infection. Systemic candidiasis and aspergillosis were induced by intravenous injection of 0.2 ml of each cell suspension into the tail vein using 1-ml syringe and a 27-G, ½-in. needle. The C. albicans cells and Aspergillus conidia were obtained as described above. After plating, the cells were suspended in sterile saline. Each mouse received 5×10^4 blastospores. All drugs were given at a dose rate of 5 mg/kg via the oral route suspended in methylcellulose. […] Treatment was continued daily for seven days. On the seventh day, the mice were sacrificed, and blood and tissue samples were collected. Tissue samples from liver, kidney, lungs, and heart were stored in 10% formalin and fixed for histopathological and immunohistochemical examination.
(§3) Standard histopathological sections stained with hematoxylin and eosin were performed. Immunohistochemistry was performed following the instructions of the antibodies manufacturer (Theiino Scientific, Waltman, MA, USA). The antibodies comprised CD45 and CXCR4.
Serum samples from the systemic Aspergillus experiments discussed above were analyzed using known techniques to detect serum levels of ALT, AST, uric acid, and creatinine.

[2] = test system: C. albicans vaginal infection; assay: Vaginal candidiasis mouse model; format: in vivo, mice; conditions: for CD45-positive cells in vaginal tissue (IHC, semi-quantitative) / vaginal histology (H&E): topical into the vagina 5 mg/kg daily for seven days; for CXCR4 expression in the vaginal epithelial mucosa (IHC): treated for 7 days, vs C. albicans infected Model animals
Protocol: Standard histopathological sections stained with hematoxylin and eosin were performed. Immunohistochemistry was performed following the instructions of the antibodies manufacturer (Theiino Scientific, Waltman, MA, USA). The antibodies comprised CD45 and CXCR4. Mice vagina infected with C. albicans was used to evaluate the anticandidal actions of dabigatran. To help in induction of vaginal candidiasis, mice were immunocompromised by injection of 0.1 mg of β-estradiol in 10 μl of sesame oil 72 h and 24 h before vaginal infection for induction of estrus. Infection was done during the estrus phase by intravaginal dropping of the Candida blastoconidia. Each mouse received 3×10^6 blastospores into the vaginal cavity. Uninoculated control mice (the control group) were injected intravaginally with sterile saline. […] All drugs were given topically into the vagina at a dose rate of 5 mg/kg daily for seven days post-infection. On the seventh day, the mice were sacrificed, and blood and vaginal samples were collected. At ×400 magnification, five visual random fields were analyzed. An adopted procedure was used to assess the degree of infection and inflammation (Zhang, J. E., et al., “Feasibility of histological scoring and colony count for evaluating infective severity in mouse vaginal candidiasis,” Experimental Animals, 62(3): pp. 205-10 (2013)). The average scores of five fields were recorded.

[3] = test system: C. albicans systemic infection; assay: Systemic candidiasis mouse model; format: in vivo, mice; conditions: for lung histopathology (H&E): vs non-treated infected mice; for serum levels of ALT, AST, uric acid, and creatinine: systemic candidiasis, day 7, compared with infected nontreated group (combination: also vs noninfected control)
Protocol: as §1, §2, §3
Serum samples from the systemic candidiasis experiments discussed above were analyzed using known techniques to detect serum levels of ALT, AST, uric acid, and creatinine.

31 fungal strains = assay: In vitro antifungal assays, all isolates; format: cell-based; conditions: over the fungal strains tested
Protocol: (§4) In vitro studies were performed including a total of 31 fungal strains. The strains were obtained from the American Type Culture Collection (ATCC) or were isolated locally and provided by the fungal research centers at Alazhar and Assiut universities, Egypt. Dabigatran's antifungal activity was tested against 31 fungal strains, as previously described. (Johnson, T. R. and Case, C. L., “Laboratory experiments in microbiology” Pearson/Benjamin Cummings (2004)) The in vitro studies included a total of 31 fungal strains. Fungal strains were separately grown in universal tubes with 20 ml of Sabouraud's dextrose broth for 3-7 days to create inocula for antifungal tests. Bioassays were carried out in 10 cm sterile Petri dishes containing 15 ml Sabouraud's dextrose agar medium and microbial suspension. Using a sterile cork borer, 5 mm diameter cavities were bored in the solidified agar (3 cavities/plate) after the media had hardened. […] Controls were prepared using DMSO and fluconazole. Candida cultures were incubated for 72 hours at 27° C., while other fungal cultures were incubated for up to seven days.

[4] = test system: Penicillium expansurn RCMB 001001 IMI28169; assay: In vitro antifungal assay (agar well); format: cell-based, Penicillium expansum
Protocol: as §4

[5] = test system: Syncephalastrurn racemosum RCMB 016001; assay: In vitro antifungal assay (agar well); format: cell-based, Syncephalastrum racemosum
Protocol: as §4

[6] = test system: Aspergillus niger AUMC No. 14408; assay: In vitro antifungal assay (agar well); format: cell-based
Protocol: as §4

[7] = test system: Candida tropicalis AUMC No. 9158; assay: In vitro antifungal assay (agar well); format: cell-based; conditions: 72 hours at 27° C.
Protocol: as §4

[8] = test system: Penicillium aurantiogriseum IMI 89372; assay: In vitro antifungal assay (agar well); format: cell-based
Protocol: as §4

[9] = test system: Aspergillus terreus AUMC No. 14389; assay: In vitro antifungal assay (agar well); format: cell-based
Protocol: as §4

[10] = test system: Candida lipolytica RCMB 005007; assay: In vitro antifungal assay (agar well); format: cell-based; conditions: 72 hours at 27° C.
Protocol: as §4

[11] = test system: Trichophyton mentagrophytes AUMC No. 14492; assay: In vitro antifungal assay (agar well); format: cell-based
Protocol: as §4

[12] = test system: Microsporum canis AUMC No. 14454; assay: In vitro antifungal assay (agar well); format: cell-based
Protocol: as §4

[13] = test system: Fusarium moniliforme RCMB 001006; assay: In vitro antifungal assay (agar well); format: cell-based
Protocol: as §4

[14] = test system: Candida albicans RCMB 005003 (1) ATCC 10231; assay: In vitro antifungal assay (agar well); format: cell-based; conditions: 72 hours at 27° C.
Protocol: as §4

[15] = test system: Trichophyton rubrum AUMC No. 1804; assay: In vitro antifungal assay (agar well); format: cell-based
Protocol: as §4

[16] = test system: Cryptococcus neoformas RCMB 0049001; assay: In vitro antifungal assay (agar well); format: cell-based
Protocol: as §4

[17] = test system: Aspergillus nidulans AUMC No. 14333; assay: In vitro antifungal assay (agar well); format: cell-based
Protocol: as §4

[18] = test system: Cryptococcus neoformans AUMC No. 2795; assay: In vitro antifungal assay (agar well); format: cell-based
Protocol: as §4

[19] = test system: Mucor circillelloides AUMC No. 3704; assay: In vitro antifungal assay (agar well); format: cell-based
Protocol: as §4

[20] = test system: Sporotlirix schenckii AUMC No. 2739; assay: In vitro antifungal assay (agar well); format: cell-based
Protocol: as §4

[21] = test system: Aspergillus flavus AUMC No. 1276; assay: In vitro antifungal assay (agar well); format: cell-based
Protocol: as §4

[22] = test system: Penicillium marneffei AUMC No. 9370; assay: In vitro antifungal assay (agar well); format: cell-based
Protocol: as §4

[23] = test system: Aspergillus ustus AUMC No. 3605; assay: In vitro antifungal assay (agar well); format: cell-based
Protocol: as §4

[24] = test system: Candida alibicans AUMC No. 9160; assay: In vitro antifungal assay (agar well); format: cell-based; conditions: 72 hours at 27° C.
Protocol: as §4

[25] = test system: Penicillium italicum RCMB 001018 (1) IMI 193019; assay: In vitro antifungal assay (agar well); format: cell-based
Protocol: as §4

[26] = test system: Aspergillus fumigatus AUMC No. 14358; assay: In vitro antifungal assay (agar well); format: cell-based
Protocol: as §4

[27] = test system: Penicllium marneffeii RCMB 001034; assay: In vitro antifungal assay (agar well); format: cell-based
Protocol: as §4

[28] = test system: Candida tropicalis RCMB 005004; assay: In vitro antifungal assay (agar well); format: cell-based; conditions: 72 hours at 27° C.
Protocol: as §4

[29] = test system: Aspergillus flavus RCMB 002002; assay: In vitro antifungal assay (agar well); format: cell-based
Protocol: as §4

[30] = test system: Candida glabrata AUMC No. 9166; assay: In vitro antifungal assay (agar well); format: cell-based; conditions: 72 hours at 27° C.
Protocol: as §4

[31] = test system: Aspergillus furnigatus (RCMB 002008); assay: In vitro antifungal assay (agar well); format: cell-based, Aspergillus fumigatus
Protocol: as §4

[32] = test system: Geotricurn candidum RCMB 026008; assay: In vitro antifungal assay (agar well); format: cell-based, Geotricum candidum
Protocol: as §4

[33] = immunocompromised mice, A. fumigatus i.v., 5 mg/kg oral daily for seven days
[34] = immunocompromised mice, C. albicans i.v., 5 mg/kg oral daily for seven days

OC(Cn1cncn1)(Cn1cncn1)c1ccc(F)cc1F [fluconazole]
liver histopathology (H&E) [1, 33]: Comparable histopathological injuries | heart histopathology (H&E) [1, 33]: comparable | serum levels of ALT, AST, uric acid, and creatinine [1]: significant decrease in all markers, except creatinine | CD45-positive cells in vaginal tissue (IHC, semi-quantitative) [2]: Mild to moderate CD45-positive cells spread across the submucosa | vaginal histology (H&E) [2]: modest sub-epithelial inflammatory reaction | CXCR4 expression in the vaginal epithelial mucosa (IHC) [2]: significant decrease | liver histopathology (H&E) [3, 34]: moderate inflammatory cell infiltration in the perivascular regions, mild sinusoidal congestion, and few apoptotic cells | lung histopathology (H&E) [3, 34]: slightly ameliorated the lung damage | serum levels of ALT, AST, uric acid, and creatinine [3]: significant decrease in ALT levels only

CCCCCCOC(=O)NC(=N)c1ccc(NCc2nc3cc(C(=O)N(CCC(=O)OCC)c4ccccn4)ccc3n2C)cc1 [Dabigatran etexilate]
range of MIC values (31 fungal strains): 8 to 256 µg/mL | MIC [4]: 128 µg/mL (≈ 204 µM) | MIC [5]: 8 µg/mL (≈ 12.7 µM) | kidney histopathology (H&E) [1, 33]: modest improvements | lung histopathology (H&E), inflammation [1, 33]: decreased airspace areas because of red blood cells extravasation | liver histopathology (H&E) [1, 33]: Comparable histopathological injuries | heart histopathology (H&E) [1, 33]: comparable | serum levels of ALT, AST, uric acid, and creatinine [1]: significantly decreased all serum markers | MIC [6]: 128 µg/mL (≈ 204 µM) | MIC [7]: 128 µg/mL (≈ 204 µM) | MIC [8]: 32 µg/mL (≈ 51 µM) | MIC [9]: 128 µg/mL (≈ 204 µM) | MIC [10]: 16 µg/mL (≈ 25.5 µM) | MIC [11]: 32 µg/mL (≈ 51 µM) | MIC [12]: 128 µg/mL (≈ 204 µM) | MIC [13]: 16 µg/mL (≈ 25.5 µM) | MIC [14]: 16 µg/mL (≈ 25.5 µM) | MIC [15]: 32 µg/mL (≈ 51 µM) | MIC [16]: 16 µg/mL (≈ 25.5 µM) | MIC [17]: 64 µg/mL (≈ 102 µM) | MIC [18]: 32 µg/mL (≈ 51 µM) | MIC [19]: 64 µg/mL (≈ 102 µM) | MIC [20]: 16 µg/mL (≈ 25.5 µM) | MIC [21]: 64 µg/mL (≈ 102 µM) | MIC [22]: 64 µg/mL (≈ 102 µM) | MIC [23]: 64 µg/mL (≈ 102 µM) | MIC [24]: 32 µg/mL (≈ 51 µM) | MIC [25]: 64 µg/mL (≈ 102 µM) | MIC [26]: 128 µg/mL (≈ 204 µM) | MIC [27]: 256 µg/mL (≈ 408 µM) | MIC [28]: 128 µg/mL (≈ 204 µM) | MIC [29]: 128 µg/mL (≈ 204 µM) | MIC [30]: 32 µg/mL (≈ 51 µM) | CD4+ T cells in vaginal tissue (IHC, figure legends) ([2]; FIGS. 18 and 19, number / migration to lamina propria): dramatically decreased | CD45-positive cells in vaginal tissue (IHC, semi-quantitative) [2]: Mild to moderate CD45-positive cells spread across the submucosa | vaginal histology (H&E) [2]: considerable reduction in inflammation and injury to the vaginal epithelial mucosa | CXCR4 expression in the vaginal epithelial mucosa (IHC) [2]: significant decrease | MIC [31]: 64 µg/mL (≈ 102 µM) | MIC [32]: 32 µg/mL (≈ 51 µM) | kidney histopathology (H&E) [3, 34]: minor histological differences | liver histopathology (H&E) [3, 34]: typical hepatic architecture with the presence of very few inflammatory cells, moderate degeneration, and no necrosis | lung histopathology (H&E) [3, 34]: substantially improved | protective effect against systemic C. albicans fungal infection ([3]; mice, 5 mg/kg oral daily for seven days): potent protective effect | serum levels of ALT, AST, uric acid, and creatinine [3]: significantly decreased all serum markers
